Patent US20060128723A1, “Sulptionamide compounds that modulate chemokine receptor activity (CCR4)” (priority 2003, published 2006)
Structures can show the parent of a compound that is named as a salt.

Row | SMILES | melting point
1 | COc1nccnc1NS(=O)(=O)c1scc(Cl)c1Cl [Example 2, 3,4-Dichloro-N-(3-methoxypyrazin-2-yl)thiophene-2-sulphonamide] | 151.5 to 152.5 °C
2 | COc1nccnc1NS(=O)(=O)c1sc(Cl)c(Cl)c1Cl [Example 1, 3,4,5-Trichloro-N-(3-methoxypyrazin-2-yl)thiophene-2-sulphonamide] | 212 to 214 °C
3 | COc1nc(Br)cnc1NS(=O)(=O)c1sc(Cl)c(Cl)c1Cl (as salt: ammonium) [Example 6, N-(5-Bromo-3-methoxypyrazin-2-yl)-3,4,5-trichlorothiophene-2-sulphonamide, ammonium salt] | 211 °C (dec.)
4 | COc1nc(Br)cnc1NS(=O)(=O)c1scc(Cl)c1Cl (as salt: ammonium) [Example 5, N-(5-Bromo-3-methoxypyrazin-2-yl)-3,4-dichlorothiophene-2-sulphonamide, ammonium salt] | 204 °C (dec.)
5 | COc1nc(C)cnc1NS(=O)(=O)c1scc(Cl)c1Cl [Example 4, 3,4-Dichloro-N-(3-methoxy-5-methylpyrazin-2-yl)thiophene-2-sulphonamide] | 117 to 118 °C
6 | COc1nc(Cl)cnc1NS(=O)(=O)c1scc(Cl)c1Cl [Example 8, 3,4-Dichloro-N-(5-chloro-3-methoxypyrazin-2-yl)thiophene-2-sulphonamide.] | 116 to 117 °C
7 | COc1nc(C)cnc1NS(=O)(=O)c1sc(Cl)c(Cl)c1Cl [Example 3, 3,4,5-Trichloro-N-(3-methoxy-5-methylpyrazin-2-yl)thiophene-2-sulphonamide] | 146 to 147 °C
8 | COc1nc(Cl)cnc1NS(=O)(=O)c1sc(Cl)c(Cl)c1Cl [Example 7, 3,4,5-Trichloro-N-(5-chloro-3-methoxypyrazin-2-yl)thiophene-2-sulphonamide.] | 178 to 179 °C
